From patent publication EP2401611B1, “IMPROVED METHODS FOR IDENTIFICATION” (Cambridge Enterprise Limited, priority 2009, dated 2010)
Where two headings read alike, the source gives them in different places.

Key:
[1] = test system: Panc-2H4; assay: Human Panc-2H4 insulin suppression assay; format: cell-based; conditions: Homo sapiens
Excerpt: Two different assays for "classical" sstr2 functions were adopted: (1) cultured foetal rat pituitary cells secreted growth hormone which is inhibited by sstr2 agonists in a dose-dependent fashion and (2) selected glucose-sensitive sub-clones of the human Panc-1 cell line secrete insulin which is inhibited by sstr2 agonists in a dose-dependent fashion.
Glucose-sensitive sub-clones of the human Panc-1, a cell line derived from a pleiomorphic epithelioid carcinoma of the exocrine pancreas, were obtained essentially as described by Hamil et al. (2008) Biomed. Sci. Instrum. 44:441-6. Briefly, Panc-1 cells were subcultured in 24 well plates, and the medium was supplemented with an additional 5% glucose. […] The resulting sub-lines were then tested for glucose sensitivity by preparing wells of a 96-well plate (5 x 10^4 cells per well) which were then exposed to cultured medium containing a range of glucose concentrations (low glucose DMEM, DMEM, DMEM + 1% glucose, DMEM ± 2.5% glucose and DMEM + 5% glucose). After 24hrs incubation, the conditioned medium was collected and assayed for insulin secretion by ELISA (Linco; cat# EZHI-14K) in accordance with the manufacturer's instructions. […] Further 96 well plates were prepared using Panc-2H4 (5 x 10^4 cells per well) in DMEM. After 24hrs, the medium was switched to DMEM + 5% glucose containing various test agents at various concentrations (triplicate wells per condition). After a further 24hrs, the conditioned medium was harvested and the concentration of insulin was determined by ELISA as described above.
Results were reported as the mean ± SD, expressed as the fold change from cells in the presence of vehicle only.

[2] = test system: Jurkat T cells; assay: SDF-1α induced migration of parental Jurkat T cells; format: cell-based, human
Experimental: Jurkat T cells and Jurkat-D3B cells were induced to migrate in response to 100ng/ml SDF-1α (R&D systems; the concentration of SDF-1α which induced maximal cell migration in both lines). The BSCI BN83250 was then added at various concentrations between 0nM and 1000nM (each in triplicate) to both the upper and lower compartments (at the same concentration in each compartment, so as not to create a gradient of BSCI concentration). DMSO (1% final concentration) was used as the vehicle, and was present in all wells at equal concentration.

[3] = Table 3, percentage suppression compared to vehicle, read-out: Human Panc-2H4 insulin suppression assay Max effect (%)

Row | SMILES | Emax [1, 3] [%] | EC50 ([1]; Table 3, read-out: Human Panc-2H4 insulin suppression assay ED50) [nM] | EC50 ([1]; Table 5, library screening hits, read-out: Panc-2H4 insulin suppression assay ("classical" target) ED50) [nM] | Emax ([1]; Table 5, read-out: Panc-2H4 insulin suppression assay ("classical" target) Max Effect (%)) [%] | effect on SDF-1α induced migration of parental Jurkat T cell line (in words) [2]
1 | CCCCCCCCCCC(C)(C)C(=O)N[C@H]1CCCCNC1=O [BN83250, (S)-3-(2',2'-dimethyldodecanoyl)amino-caprolactam] | 28 | 1000 | 1000 | 28 | little or no effect
2 | CC(C)(C)C(=O)N[C@H]1CCCNC1=O [Valerolactam, (S)-3-(2'2'-dimethylpropionoylamino)-tetrahydropyridin-2-one] | < 10 | – | – | – | –
